The values that follow come from ChEMBL document CHEMBL1156456, “Insights into the mechanism of partial agonism: crystal structures of the peroxisome proliferator-activated receptor gamma ligand-binding domain in the complex with two enantiomeric ligands” (J Biol Chem, 2007).

One may read the EC50 as the concentration at which the effect is half-maximal.

Experiment [1] in a line: Activation of PPARgamma L469A mutant-mediated transcriptional activity assessed as Gal4 reporter activity.
Experiment [2] is described as follows: Activation of PPARgamma I472A mutant-mediated transcriptional activity assessed as Gal4 reporter activity.
Experiment [3] can be described thus: Activation of PPARgamma Q286G mutant-mediated transcriptional activity assessed as Gal4 reporter activity.
Experiment [4] in a line: Activation of PPARgamma L465A mutant-mediated transcriptional activity assessed as Gal4 reporter activity.

On to `CN(CCOc1ccc(CC2SC(=O)NC2=O)cc1)c1ccccn1` (centres undefined) [ROSIGLITAZONE], for which the EC50 in experiment [1] is > 10 µM; in experiment [2] it was > 10 µM; in experiment [3], 207 nM; in experiment [4], > 10 µM.
